ChEMBL document CHEMBL3045580, “New aspect of gallic esters: marked effect on termite feeding” (J Pestic Sci, 2011)
Calls of active or inactive are those of the source. The calls are words filed in the database; no cut-off is given here.

Legend:
Format in all cases: functional, organism-based
Coptotermes formosanus [1] = test: Antifeeding activity against Coptotermes formosanus undifferentiated larvae assessed as induction of feeding deterrence using 0.5% w/w compound treated filter paper disks measured after 1 week by no-choice feeding test
Coptotermes formosanus [2] = test: Feeding stimulant effect in Coptotermes formosanus undifferentiated larvae using 0.5% w/w compound treated filter paper disks measured after 1 week by no-choice feeding test
Coptotermes formosanus [3] = test: Antifeeding activity against Coptotermes formosanus undifferentiated larvae assessed as induction of feeding deterrence compound treated filter paper disks measured after 1 week by no-choice feeding test

| Compound | Activity (Coptotermes formosanus [1]) | Activity (Coptotermes formosanus [2]) | IC50 (Coptotermes formosanus [3]) |
| --- | --- | --- | --- |
| CCCCCCCCCCCCOC(=O)c1cc(O)c(O)c(O)c1 | Active |  |  |
| CCCCCCCCCCCCCCCCCCOC(=O)c1cc(O)c(O)c(O)c1 |  | Active |  |
| CCCCCCCCCCOC(=O)c1cc(O)c(O)c(O)c1 [DECYL GALLATE] | Active |  | 0.05% |
| CCCCCCCCOC(=O)c1cc(O)c(O)c(O)c1 | Active |  |  |
| CCCCCCOC(=O)c1cc(O)c(O)c(O)c1 | Active |  |  |
| CCCCCCCCCCCCCCOC(=O)c1cc(O)c(O)c(O)c1 | Active |  |  |
| CCCOC(=O)c1cc(O)c(O)c(O)c1 | Active |  |  |
